Target: 11β-HSD1 (Homo sapiens, UniProt P28845)
Assay: Inhibition of a microsomal preparation of 11β-HSD1, scintillation proximity assay
Assay type: biochemical
Set-up: expressed in transfected cells; host or cells: CHO cells (microsomes)
Conditions: microsomes from CHO cells overexpressing human 11β-HSD1; for inhibition at 0.1 µM: at 100 nM
Method: All reactions were carried out at rt in 96 well clear flexible PET Microbeta plates (PerkinElmer). […] After a 10 minute pre-incubation, 50 μL of enzyme solution containing microsomes isolated from CHO cells overexpressing human 11β-HSD1 (10-20 μg/ml of total protein) was added, and the plates were incubated for 90 minutes at rt. The reaction was stopped by adding 50 μl of the SPA beads suspension containing 10 μM 18β-glycyrrhetinic acid, 5 mg/ml protein A coated YSi SPA beads (GE Healthcare) and 3.3 μg/ml of anti-cortisol antibody (East Coast Biologics) in Superblock buffer (Bio-Rad). The plates were shaken for 120 minutes at rt, and the SPA signal corresponding to [^3H]cortisol was measured on a Microbeta plate reader.

Chain of 11β-HSD1 (P28845 whole entry): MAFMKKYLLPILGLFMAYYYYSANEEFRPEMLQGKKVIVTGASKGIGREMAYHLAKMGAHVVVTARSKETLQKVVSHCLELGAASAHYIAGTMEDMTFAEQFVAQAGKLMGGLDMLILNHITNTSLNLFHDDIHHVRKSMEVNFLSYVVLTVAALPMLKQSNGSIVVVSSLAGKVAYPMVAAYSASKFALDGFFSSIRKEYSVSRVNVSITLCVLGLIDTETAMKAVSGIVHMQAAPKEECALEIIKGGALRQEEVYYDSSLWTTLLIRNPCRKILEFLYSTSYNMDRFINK

SMILES | inhibition at 0.1 µM | IC50
C[C@@H](c1ccc(C#CC(C)(C)C(=O)O)cc1)N1CC[C@](CC(C)(C)O)(c2ccccc2)OC1=O [Example 4, 4-(4-((S)-1-((S)-6-(2-hydroxy-2-methylpropyl)-2-oxo-6-phenyl-1,3-oxazinan-3-yl)ethyl)phenyl)-2,2-dimethylbut-3-ynoic acid] | 86% | 13.4 nM
COC(=O)NC1(C#Cc2ccc([C@H](C)N3CC[C@](CC(C)(C)O)(c4ccccc4)OC3=O)cc2)CCCCC1 [Example 15, Methyl 1-((4-((S)-1-((S)-6-(2-hydroxy-2-methylpropyl)-2-oxo-6-phenyl-1,3-oxazinan-3-yl)ethyl)phenyl)ethynyl)cyclohexylcarbamate] | 92.4% | 2.4 nM
COc1cc(C#Cc2ccc([C@H](C)N3CC[C@](CC(C)(C)O)(c4ccccc4)OC3=O)cc2)ccn1 [Example 28, (S)-6-(2-hydroxy-2-methylpropyl)-3-((S)-1-(4-((2-methoxypyridin-4-yl)ethynyl)phenyl)ethyl)-6-phenyl-1,3-oxazinan-2-one] | 103% | 1.7 nM
C[C@@H](c1ccc(C#CC2(O)CCOCC2)cc1)N1CC[C@](CC(C)(C)O)(c2ccccc2)OC1=O [Example 10, (S)-6-(2-hydroxy-2-methylpropyl)-3-((S)-1-(4-((4-hydroxytetrahydro-2H-pyran-4-yl)ethynyl)phenyl)ethyl)-6-phenyl-1,3-oxazinan-2-one] | 84.7% | 6.9 nM
C=C(C)C[C@]1(c2ccccc2)CCN([C@@H](C)c2ccc(C#CC(C)(C)NS(C)(=O)=O)cc2)C(=O)O1 [Example 22, N-(2-methyl-4-(4-((S)-1-((R)-6-(2-methylallyl)-2-oxo-6-phenyl-1,3-oxazinan-3-yl)ethyl)phenyl)but-3-yn-2-yl)methanesulfonamide] | 93.6% | 1.8 nM
C[C@@H](c1ccc(C#CC2(NC(N)=O)CCCCC2)cc1)N1CC[C@](CC(C)(C)O)(c2ccccc2)OC1=O [Example 16, 1-(1-((4-((S)-1-((S)-6-(2-hydroxy-2-methylpropyl)-2-oxo-6-phenyl-1,3-oxazinan-3-yl)ethyl)phenyl)ethynyl)cyclohexyl)urea] | 95.6% | 3.1 nM
CNC(=O)NC(C)(C)C#Cc1ccc([C@H](C)N2CC[C@](CC(C)(C)O)(c3ccccc3)OC2=O)cc1 [Example 20, 1-(4-(4-((S)-1-((S)-6-(2-hydroxy-2-methylpropyl)-2-oxo-6-phenyl-1,3-oxazinan-3-yl)ethyl)phenyl)-2-methylbut-3-yn-2-yl)-3-methylurea] | 92.2% | 4.2 nM
C[C@@H](c1ccc(C#CC2(O)CNC2)cc1)N1CC[C@](CC(C)(C)O)(c2ccccc2)OC1=O [Example 24, (S)-6-(2-hydroxy-2-methylpropyl)-3-((S)-1-(4-((3-hydroxyazetidin-3-yl)ethynyl)phenyl)ethyl)-6-phenyl-1,3-oxazinan-2-one] | 56.1% | 62.3 nM
COC(=O)N1CC(O)(C#Cc2ccc([C@H](C)N3CC[C@](CC(C)(C)O)(c4ccccc4)OC3=O)cc2)C1 [Example 26, Methyl 3-hydroxy-3-((4-((S)-1-((S)-6-(2-hydroxy-2-methylpropyl)-2-oxo-6-phenyl-1,3-oxazinan-3-yl)ethyl)phenyl)ethynyl)azetidine-1-carboxylate] | 95.9% | 2.8 nM
C[C@@H](c1ccc(C#CC2(N)CCCCC2)cc1)N1CC[C@](CC(C)(C)O)(c2ccccc2)OC1=O [Example 13, (S)-3-((S)-1-(4-((1-aminocyclohexyl)ethynyl)phenyl)ethyl)-6-(2-hydroxy-2-methylpropyl)-6-phenyl-1,3-oxazinan-2-one] | 82.5% | 12.4 nM
C[C@@H](c1ccc(C#CC(C)(C)NC(=O)N(C)C)cc1)N1CC[C@](CC(C)(C)O)(c2ccccc2)OC1=O [Example 23, 3-(4-(4-((S)-1-((S)-6-(2-hydroxy-2-methylpropyl)-2-oxo-6-phenyl-1,3-oxazinan-3-yl)ethyl)phenyl)-2-methylbut-3-yn-2-yl)-1,1-dimethylurea] | 86% | 12.3 nM
CC(=O)N1CC(O)(C#Cc2ccc([C@H](C)N3CC[C@](CC(C)(C)O)(c4ccccc4)OC3=O)cc2)C1 [Example 25, (S)-3-((S)-1-(4-((1-acetyl-3-hydroxyazetidin-3-yl)ethynyl)phenyl)ethyl)-6-(2-hydroxy-2-methylpropyl)-6-phenyl-1,3-oxazinan-2-one] | 94.1% | 3.6 nM
C[C@@H](c1ccc(C#Cc2cc[nH]c(=O)c2)cc1)N1CC[C@](CC(C)(C)O)(c2ccccc2)OC1=O [Example 29, (S)-6-(2-hydroxy-2-methylpropyl)-3-((S)-1-(4-((2-oxo-1,2-dihydropyridin-4-yl)ethynyl)phenyl)ethyl)-6-phenyl-1,3-oxazinan-2-one] | 97.9% | 1.4 nM
C[C@@H](c1ccc(C#CC(C)(C)NS(C)(=O)=O)cc1)N1CC[C@](CC(C)(C)O)(c2ccccc2)OC1=O [Example 21, N-(4-(4-((S)-1-((S)-6-(2-hydroxy-2-methylpropyl)-2-oxo-6-phenyl-1,3-oxazinan-3-yl)ethyl)phenyl)-2-methylbut-3-yn-2-yl)methanesulfonamide] | 93.7% | 3.4 nM
C[C@@H](c1ccc(C#CC(C)(C)N)cc1)N1CC[C@](CC(C)(C)O)(c2ccccc2)OC1=O [Example 12, (S)-3-((S)-1-(4-(3-amino-3-methylbut-1-ynyl)phenyl)ethyl)-6-(2-hydroxy-2-methylpropyl)-6-phenyl-1,3-oxazinan-2-one] | 63.7% | 53.4 nM
C[C@@H](c1ccc(C#CC(C)(C)C(=O)N(C)C)cc1)N1CC[C@](CC(C)(C)O)(c2ccccc2)OC1=O [Example 5, 4-(4-((S)-1-((S)-6-(2-hydroxy-2-methylpropyl)-2-oxo-6-phenyl-1,3-oxazinan-3-yl)ethyl)phenyl)-N,N,2,2-tetramethylbut-3-ynamide] | 97% | 1.1 nM
COC(=O)OC1(C#Cc2ccc([C@H](C)N3CC[C@](CC(C)(C)O)(c4ccccc4)OC3=O)cc2)CN(C(=O)OC)C1 [Example 27, Methyl 3-((4-((S)-1-((S)-6-(2-hydroxy-2-methylpropyl)-2-oxo-6-phenyl-1,3-oxazinan-3-yl)ethyl)phenyl)ethynyl)-3-(methoxycarbonyloxy)azetidine-1-carboxylate] | 95.8% | 2.4 nM
C[C@@H](c1ccc(C#CC(C)(C)C(=O)NC2CC2)cc1)N1CC[C@](CC(C)(C)O)(c2ccccc2)OC1=O [Example 7, N-cyclopropyl-4-(4-((S)-1-((S)-6-(2-hydroxy-2-methylpropyl)-2-oxo-6-phenyl-1,3-oxazinan-3-yl)ethyl)phenyl)-2,2-dimethylbut-3-ynamide] | 93.5% | 5.2 nM
C[C@@H](c1ccc(C#CC(C)(C)NC(=O)C2CC2)cc1)N1CC[C@](CC(C)(C)O)(c2ccccc2)OC1=O [Example 8, N-(4-(4-((S)-1-((S)-6-(2-hydroxy-2-methylpropyl)-2-oxo-6-phenyl-1,3-oxazinan-3-yl)ethyl)phenyl)-2-methylbut-3-yn-2-yl)cyclopropanecarboxamide] | 92.2% | 7.5 nM
CC(=O)NC1(C#Cc2ccc([C@H](C)N3CC[C@](CC(C)(C)O)(c4ccccc4)OC3=O)cc2)CCCCC1 [Example 14, N-(1-((4-((S)-1-((S)-6-(2-hydroxy-2-methylpropyl)-2-oxo-6-phenyl-1,3-oxazinan-3-yl)ethyl)phenyl)ethynyl)cyclohexyl)acetamide] | 89.8% | 4.2 nM
C[C@@H](c1ccc(C#CC2(O)CCCC2)cc1)N1CC[C@](CC(C)(C)O)(c2ccccc2)OC1=O [Example 2, (S)-6-(2-hydroxy-2-methylpropyl)-3-((S)-1-(4-((1-hydroxycyclopentyl)ethynyl)phenyl)ethyl)-6-phenyl-1,3-oxazinan-2-one] | 89.1% | 1.9 nM
CC(=O)NC(C)(C)C#Cc1ccc([C@H](C)N2CC[C@](CC(C)(C)O)(c3ccccc3)OC2=O)cc1 [Example 17, N-(4-(4-((S)-1-((S)-6-(2-hydroxy-2-methylpropyl)-2-oxo-6-phenyl-1,3-oxazinan-3-yl)ethyl)phenyl)-2-methylbut-3-yn-2-yl)acetamide] | 84.9% | 11.9 nM
C[C@@H](c1ccc(C#CC(C)(C)N2CCOC2=O)cc1)N1CC[C@](CC(C)(C)O)(c2ccccc2)OC1=O [Example 3, (S)-6-(2-hydroxy-2-methylpropyl)-3-((S)-1-(4-(3-methyl-3-(2-oxooxazolidin-3-yl)but-1-ynyl)phenyl)ethyl)-6-phenyl-1,3-oxazinan-2-one] | 99.8% | 1.1 nM
C[C@@H](c1ccc(C#CC2(O)CCN(C)CC2)cc1)N1CC[C@](CC(C)(C)O)(c2ccccc2)OC1=O [Example 11, (S)-3-((S)-1-(4-((4-hydroxy-1-methylpiperidin-4-yl)ethynyl)phenyl)ethyl)-6-(2-hydroxy-2-methylpropyl)-6-phenyl-1,3-oxazinan-2-one] | 50.5% | 86.3 nM
C[C@@H](c1ccc(C#CC(C)(C)NC(N)=O)cc1)N1CC[C@](CC(C)(C)O)(c2ccccc2)OC1=O [Example 19, 1-(4-(4-((S)-1-((S)-6-(2-hydroxy-2-methylpropyl)-2-oxo-6-phenyl-1,3-oxazinan-3-yl)ethyl)phenyl)-2-methylbut-3-yn-2-yl)urea] | 97.6% | 2.4 nM

From patent US8883778B2, “Cyclic inhibitors of 11 beta-hydroxysteroid dehydrogenase 1” (Vitae Pharmaceuticals, Inc., priority 2009, dated 2014)
